According to ChEMBL document CHEMBL3217528, “Bicyclic imidazole-4-one derivatives: a new class of antagonists for the orphan G protein-coupled receptors GPR18 and GPR55” (Medchemcomm, 2014):
The source made the active and inactive calls. The rule behind the calls is not given here.

Assays:
Cannabinoid receptor 1 [1] = biological target: Cannabinoid receptor 1 (Rattus norvegicus, UniProt P20272); experiment: Displacement of [3H]CP55,940 from CB1 receptor in rat brain cortical membranes; type: cell membranes
[2] = biological target: T1, G-protein coupled receptor 35 (Homo sapiens, UniProt Q9HC97); experiment: Agonist activity at human GPR35 assessed as induction of beta-arrestin recruitment by beta-galactosidase enzyme fragment complementation method
[3] = biological target: T1, G-protein coupled receptor 35; experiment: Antagonist activity at human GPR35 assessed as reduction of zaprinast-induced beta-arrestin recruitment by beta-galactosidase enzyme fragment complementation method relative to untreated control; set-up: concentration or dose not given beside the values; conditions: concentration not given here
Cannabinoid receptor 1 [4] = biological target: T2, Cannabinoid receptor 1 (Homo sapiens, UniProt P21554); experiment: Agonist activity at human recombinant CB1 receptor expressed in CHO-K1 cell membranes assessed effect on forskolin-induced cAMP accumulation at 10 uM; type: functional, cell-based
[5] = biological target: T3, G-protein coupled receptor 55 (Homo sapiens, UniProt Q9Y2T6); experiment: Agonist activity at human GPR55 expressed in CHO cells assessed as induction of LPI-induced beta-arrestin recruitment by beta-galactosidase enzyme fragment complementation method relative to LPI; type: cell-based; set-up: concentration or dose not given beside the values
Cannabinoid receptor 2 [6] = biological target: T4, Cannabinoid receptor 2 (Homo sapiens, UniProt P34972); experiment: Displacement of [3H]CP55,940 from human recombinant CB2 receptor expressed in HEK293 cells; type: cell-based
Cannabinoid receptor 1 [7] = biological target: T2, Cannabinoid receptor 1; experiment: Displacement of [3H]CP55,940 from human recombinant CB1 receptor expressed in CHO-K1 cells; type: cell-based
[8] = Displacement of [3H]diazepam from GABAA receptor in rat brain cortical membranes; type: cell membranes
Cannabinoid receptor 2 [9] = biological target: T4, Cannabinoid receptor 2; experiment: Intrinsic activity at human recombinant CB2 receptor expressed in HEK293 cell membranes assessed as stimulation of [35S]GTPgammaS binding at 10 uM by liquid scintillation counting method relative to CP55,940; type: functional
[10] = biological target: T1, G-protein coupled receptor 35; experiment: Agonist activity at human GPR35 assessed as induction of beta-arrestin recruitment by beta-galactosidase enzyme fragment complementation method relative to zaprinast; set-up: concentration or dose not given beside the values
[11] = biological target: T5, N-arachidonyl glycine receptor (Homo sapiens, UniProt Q14330); experiment: Antagonist activity against human GPR18 expressed in CHO cells assessed as reduction in delta9-THC-induced beta-arrestin recruitment by beta-galactosidase enzyme fragment complementation method; type: cell-based
T5 sequence (Q14330 whole entry): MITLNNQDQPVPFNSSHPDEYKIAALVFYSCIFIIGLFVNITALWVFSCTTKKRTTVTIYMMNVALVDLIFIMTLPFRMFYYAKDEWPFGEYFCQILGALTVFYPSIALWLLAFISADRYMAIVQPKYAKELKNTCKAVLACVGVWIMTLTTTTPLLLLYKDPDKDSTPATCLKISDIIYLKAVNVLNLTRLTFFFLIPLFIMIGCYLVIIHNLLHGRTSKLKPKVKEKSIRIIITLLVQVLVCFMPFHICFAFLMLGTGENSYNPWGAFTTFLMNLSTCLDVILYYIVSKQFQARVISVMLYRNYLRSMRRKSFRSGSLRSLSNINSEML

Cannabinoid receptor 1 [12] = biological target: T2, Cannabinoid receptor 1; experiment: Intrinsic activity at human recombinant CB1 receptor expressed in HEK293 cell membranes assessed as stimulation of [35S]GTPgammaS binding at 10 uM by liquid scintillation counting method relative to CP55,940; type: functional
[13] = biological target: T3, G-protein coupled receptor 55; experiment: Agonist activity at human GPR55 expressed in CHO cells assessed as induction of LPI-induced beta-arrestin recruitment by beta-galactosidase enzyme fragment complementation method; type: cell-based
[14] = biological target: T1, G-protein coupled receptor 35; experiment: Antagonist activity at human GPR35 assessed as reduction of zaprinast-induced beta-arrestin recruitment by beta-galactosidase enzyme fragment complementation method
[15] = biological target: T6, N-arachidonyl glycine receptor (Homo sapiens) (UniProt Q14330); experiment: Antagonist activity against human GPR18 expressed in CHO cells assessed as reduction in delta9-THC-induced beta-arrestin recruitment at 10 uM by beta-galactosidase enzyme fragment complementation method; type: cell-based
T6 sequence (whole entry): T5 sequence (Q14330 whole entry)

[16] = biological target: Cannabinoid receptor 1 (Rattus norvegicus) (UniProt P20272); experiment: Intrinsic activity at CB1 receptor in rat brain cortical membranes assessed as stimulation of [35S]GTPgammaS binding at 10 uM by liquid scintillation counting method relative to CP55,940; type: functional, cell membranes
[17] = biological target: T6, N-arachidonyl glycine receptor (Homo sapiens); experiment: Agonist activity at human GPR18 expressed in CHO cells assessed as induction of beta-arrestin recruitment by beta-galactosidase enzyme fragment complementation method relative to delta9-THC; type: cell-based; set-up: concentration or dose not given beside the values
[18] = biological target: T3, G-protein coupled receptor 55; experiment: Antagonist activity against human GPR55 expressed in CHO cells assessed as reduction in LPI-induced beta-arrestin recruitment at 10 uM by beta-galactosidase enzyme fragment complementation method; type: cell-based
Cannabinoid receptor 1 [19] = biological target: T2, Cannabinoid receptor 1; experiment: Displacement of [3H]CP55,940 from human recombinant CB1 receptor expressed in CHO-K1 cells at 10 uM; type: cell-based
Cannabinoid receptor 2 [20] = biological target: T4, Cannabinoid receptor 2; experiment: Displacement of [3H]CP55,940 from human recombinant CB2 receptor expressed in HEK293 cells at 10 uM; type: cell-based
Rattus norvegicus = organism: Rattus norvegicus; experiment: Displacement of [3H]diazepam from GABAA receptor in rat brain cortical membranes at 10 uM; type: cell membranes
[21] = biological target: Cannabinoid receptor 1 (Rattus norvegicus) (UniProt P20272); experiment: Displacement of [3H]CP55,940 from CB1 receptor in rat brain cortical membranes at 10 uM; type: cell membranes
[22] = biological target: T3, G-protein coupled receptor 55; experiment: Antagonist activity against human GPR55 expressed in CHO cells assessed as reduction in LPI-induced beta-arrestin recruitment by beta-galactosidase enzyme fragment complementation method; type: cell-based
[23] = biological target: T3, G-protein coupled receptor 55; experiment: Allosteric antagonist activity against human GPR55 expressed in CHO cells assessed as induction of rightward shift of concentration response curve of LPI-induced beta-arrestin recruitment at 10 uM by beta-galactosidase enzyme fragment complementation method; type: cell-based
[24] = biological target: T3, G-protein coupled receptor 55; experiment: Agonist activity at human GPR55 expressed in HEK293 cells assessed as increase in oscillation Ca2+ transients by fura-2 dye based fluorescence analysis; type: functional, cell-based
Cannabinoid receptor 2 [25] = biological target: T4, Cannabinoid receptor 2; experiment: Agonist activity at human recombinant CB2 receptor expressed in CHO-K1 cell membranes assessed effect on forskolin-induced cAMP accumulation at 10 uM; type: functional, cell-based
[26] = biological target: T5, N-arachidonyl glycine receptor; experiment: Agonist activity at human GPR18 expressed in CHO cells assessed as induction of beta-arrestin recruitment by beta-galactosidase enzyme fragment complementation method; type: cell-based
[27] = biological target: T5, N-arachidonyl glycine receptor; experiment: Agonist activity at human GPR18 expressed in […] cells by MAP kinase assay; type: cell-based
[28] = biological target: T3, G-protein coupled receptor 55; experiment: Inverse agonist activity against human GPR55 expressed in CHO cells assessed as reduction in LPI-induced beta-arrestin recruitment at 10 uM by beta-galactosidase enzyme fragment complementation method; type: cell-based
[29] = biological target: T3, G-protein coupled receptor 55; experiment: Inverse agonist activity against human GPR55 expressed in CHO cells assessed as reduction in LPI-induced beta-arrestin recruitment at 30 uM by beta-galactosidase enzyme fragment complementation method; type: cell-based

T2 sequence (P21554 whole entry, the tested form may be a part): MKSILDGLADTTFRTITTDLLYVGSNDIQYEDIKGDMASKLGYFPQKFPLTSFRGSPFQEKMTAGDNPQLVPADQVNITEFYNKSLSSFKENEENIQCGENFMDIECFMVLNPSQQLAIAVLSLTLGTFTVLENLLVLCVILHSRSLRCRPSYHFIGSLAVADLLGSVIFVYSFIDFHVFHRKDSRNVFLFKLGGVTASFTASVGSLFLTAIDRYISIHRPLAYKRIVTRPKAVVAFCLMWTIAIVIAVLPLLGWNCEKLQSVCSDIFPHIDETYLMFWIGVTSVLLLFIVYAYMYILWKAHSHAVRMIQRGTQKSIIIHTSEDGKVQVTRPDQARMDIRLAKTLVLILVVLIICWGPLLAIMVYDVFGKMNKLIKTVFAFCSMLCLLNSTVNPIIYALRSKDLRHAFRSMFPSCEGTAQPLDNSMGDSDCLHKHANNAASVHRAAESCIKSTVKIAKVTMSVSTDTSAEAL
T4 sequence (P34972 whole entry): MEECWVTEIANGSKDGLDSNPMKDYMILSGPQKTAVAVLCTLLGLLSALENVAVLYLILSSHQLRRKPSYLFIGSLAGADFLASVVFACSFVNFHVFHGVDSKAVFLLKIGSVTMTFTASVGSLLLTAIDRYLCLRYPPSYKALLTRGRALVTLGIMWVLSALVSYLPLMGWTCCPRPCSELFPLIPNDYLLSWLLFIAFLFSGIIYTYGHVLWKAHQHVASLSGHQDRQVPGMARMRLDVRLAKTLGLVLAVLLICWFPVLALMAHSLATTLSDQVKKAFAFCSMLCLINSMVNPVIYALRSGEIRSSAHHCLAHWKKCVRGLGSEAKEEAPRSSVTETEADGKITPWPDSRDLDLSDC
Chain of Cannabinoid receptor 1 (Rattus norvegicus, UniProt P20272) (P20272 whole entry, the tested form may be a part): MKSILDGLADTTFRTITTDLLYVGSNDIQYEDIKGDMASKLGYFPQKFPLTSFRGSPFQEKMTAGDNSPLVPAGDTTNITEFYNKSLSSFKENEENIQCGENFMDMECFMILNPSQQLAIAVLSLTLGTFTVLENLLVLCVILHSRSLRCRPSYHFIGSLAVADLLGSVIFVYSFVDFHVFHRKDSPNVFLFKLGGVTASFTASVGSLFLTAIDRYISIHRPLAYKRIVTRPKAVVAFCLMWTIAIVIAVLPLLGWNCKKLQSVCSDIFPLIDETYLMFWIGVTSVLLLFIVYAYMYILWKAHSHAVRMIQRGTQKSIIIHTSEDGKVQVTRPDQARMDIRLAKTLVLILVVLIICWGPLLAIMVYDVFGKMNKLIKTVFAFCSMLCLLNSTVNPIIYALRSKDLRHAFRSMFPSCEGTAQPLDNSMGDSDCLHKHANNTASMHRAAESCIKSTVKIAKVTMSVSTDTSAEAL
Chain of Cannabinoid receptor 1 (Rattus norvegicus) (P20272 whole entry, the tested form may be a part): as above
T3 sequence (Q9Y2T6 whole entry, the tested form may be a part): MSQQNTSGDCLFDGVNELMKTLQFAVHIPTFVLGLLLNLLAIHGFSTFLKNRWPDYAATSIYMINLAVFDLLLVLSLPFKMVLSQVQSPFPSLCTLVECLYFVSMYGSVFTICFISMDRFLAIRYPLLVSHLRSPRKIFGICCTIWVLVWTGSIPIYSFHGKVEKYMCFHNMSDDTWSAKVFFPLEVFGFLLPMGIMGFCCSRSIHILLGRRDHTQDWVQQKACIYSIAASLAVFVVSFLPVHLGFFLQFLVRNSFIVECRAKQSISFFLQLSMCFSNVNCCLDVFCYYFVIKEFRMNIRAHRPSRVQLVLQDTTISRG
T1 sequence (Q9HC97 whole entry, the tested form may be a part): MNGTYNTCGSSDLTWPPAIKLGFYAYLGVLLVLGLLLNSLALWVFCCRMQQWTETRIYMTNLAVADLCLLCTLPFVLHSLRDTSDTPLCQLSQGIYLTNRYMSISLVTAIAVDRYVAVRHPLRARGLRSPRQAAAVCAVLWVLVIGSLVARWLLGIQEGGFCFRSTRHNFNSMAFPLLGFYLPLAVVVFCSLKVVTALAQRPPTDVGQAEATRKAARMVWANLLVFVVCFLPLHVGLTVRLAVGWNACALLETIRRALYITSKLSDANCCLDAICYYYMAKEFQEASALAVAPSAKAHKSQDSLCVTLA

| SMILES | Ki (Cannabinoid receptor 1 [1]) [µM] | Activity (Cannabinoid receptor 1 [4]) | Activity [5] [%] | Ki (Cannabinoid receptor 2 [6]) [µM] | Ki (Cannabinoid receptor 1 [7]) [µM] | Ki [8] [µM] | IC50 [11] [µM] | EC50 [13] [µM] | inhibition [15] [%] | Activity [17] [%] | inhibition (Cannabinoid receptor 1 [19]) [%] | inhibition (Cannabinoid receptor 2 [20]) [%] | IC50 [22] [µM] | Allosteric antagonist activity [23] | other results |
| --- | --- | --- | --- | --- | --- | --- | --- | --- | --- | --- | --- | --- | --- | --- | --- |
| O=C1/C(=C/c2cccc(OCc3ccc(Cl)cc3)c2)N=C2SCCCCN12 | 0.82 | inactive | 70 | 4.15 | 0.25 | > 10 | > 10 | 10.7 | 31 | 0 |  |  |  |  | EC50 [2]: > 10 µM; inhibition [3]: 1%; Intrinsic activity (Cannabinoid receptor 2 [9]): -59%; Activity [10]: 6%; Intrinsic activity (Cannabinoid receptor 1 [12]): -40%; IC50 [14]: > 10 µM; Intrinsic activity [16]: -15% |
| O=C1/C(=C/c2cccc(Cl)c2)N=C2SCCCN12 | > 10 |  | 9 | > 10 | > 10 | 10 | > 10 |  | 14 | 0 | 30 | 2 | ≥ 10 |  | inhibition [18]: 42%; inhibition (Rattus norvegicus): 57%; inhibition [21]: 6% |
| O=C1/C(=C/c2cccc(Cl)c2Cl)N=C2SCCCN12 | > 10 |  | 3 | > 10 | > 10 |  | > 10 |  | 0 | 17 | 12 | 40 | 6.91 | Active | inhibition [21]: 6% |
| Cc1c(C(=O)NN2CCCCC2)nn(-c2ccc(Cl)cc2Cl)c1-c1ccc(I)cc1 |  |  |  |  |  |  |  |  |  |  |  |  |  |  | EC50 [24]: 0.63 µM |
| Cc1c(C(=O)NN2CCOCC2)nn(-c2ccc(Cl)cc2Cl)c1-c1ccc(I)cc1 |  | inactive |  |  |  |  |  |  |  |  |  |  |  |  | EC50 [24]: 13.6 µM; Intrinsic activity (Cannabinoid receptor 1 [12]): -80%; Intrinsic activity [16]: -42%; Activity (Cannabinoid receptor 2 [25]): inactive |
| Cc1c(C(=O)NN2CCCCC2)nn(-c2ccc(Cl)cc2Cl)c1-c1ccc(Cl)cc1 [RIMONABANT] |  |  |  |  |  |  |  |  |  |  |  |  |  |  | EC50 [26]: 10.1 µM |
| CCCCCCC(C)(C)c1ccc([C@@H]2C[C@H](O)CC[C@H]2CCCO)c(O)c1 [CP-55940] |  | Active |  |  |  |  |  | 1.61 |  |  |  |  |  |  | EC50 [26]: 5.99 µM; Activity (Cannabinoid receptor 2 [25]): Active |
| CCCCCc1cc(O)c2c(c1)OC(C)(C)[C@@H]1CCC(C)=C[C@@H]21 [DRONABINOL] |  |  |  |  |  |  |  | 14.2 |  |  |  |  |  |  | EC50 [27]: 0.96 µM |
| O=C1/C(=C/c2ccccc2Cl)N=C2SCCCN12 | > 10 |  | 27 | > 10 | > 10 | 4.15 | > 10 |  | 6 | 20 | 0 | 21 | 5.09 | Active | EC50 [2]: > 10 µM; inhibition [3]: 49%; Activity [10]: -22%; inhibition [21]: 5%; IC50 [14]: ≥ 10 µM |
| O=C1/C(=C/c2cccc(OCc3ccc(Cl)cc3Cl)c2)N=C2SCCCN12 | 0.55 | inactive | 12 | 0.95 | 2.09 | > 10 | 2.55 |  |  | 0 |  |  | > 10 |  | inhibition [18]: 0%; Intrinsic activity (Cannabinoid receptor 1 [12]): -51%; Intrinsic activity [16]: -10%; Activity (Cannabinoid receptor 2 [25]): inactive |
| O=C1/C(=C/c2cccc(F)c2F)N=C2SCCCN12 |  |  | 0 | > 10 | > 10 | > 10 | > 10 |  | 3 | 4 | 7 | 0 | 3.15 | Active | EC50 [2]: > 10 µM; inhibition [3]: 17%; Activity [10]: -4%; inhibition (Rattus norvegicus): 24%; IC50 [14]: > 10 µM; inhibition [28]: Active |
| O=C1/C(=C/c2ccc(F)cc2F)N=C2SCCCN12 |  |  | 0 | > 10 | > 10 | > 10 | > 10 |  | 6 | 11 | 13 | 0 | 3.46 | Active | inhibition [29]: Active; inhibition (Rattus norvegicus): 34% |
| CCCCC/C=C\C/C=C\C/C=C\C/C=C\CCCC(=O)O[C@H](CO)COP(=O)(O)O[C@@H]1[C@@H](O)[C@H](O)[C@@H](O)[C@H](O)[C@@H]1O |  |  |  | > 10 | > 10 |  | > 10 | 1 | 15 |  | 0 | 0 |  |  |  |
